Source: patent US9682966B2, “Kappa opioid ligands” (The Scripps Research Institute, priority 2012, dated 2017)

target: kappa opioid receptor (OPRK1) (Homo sapiens (Human), UniProt P41145); test: OPRK1 antagonist assay (b-arrestin-2-TEV / b-lactamase reporter, EC80 U-50488 challenge); type: cell-based; settings: OPRK1 antagonist assay vs EC80 U-50488
Sequence (P41145 whole entry): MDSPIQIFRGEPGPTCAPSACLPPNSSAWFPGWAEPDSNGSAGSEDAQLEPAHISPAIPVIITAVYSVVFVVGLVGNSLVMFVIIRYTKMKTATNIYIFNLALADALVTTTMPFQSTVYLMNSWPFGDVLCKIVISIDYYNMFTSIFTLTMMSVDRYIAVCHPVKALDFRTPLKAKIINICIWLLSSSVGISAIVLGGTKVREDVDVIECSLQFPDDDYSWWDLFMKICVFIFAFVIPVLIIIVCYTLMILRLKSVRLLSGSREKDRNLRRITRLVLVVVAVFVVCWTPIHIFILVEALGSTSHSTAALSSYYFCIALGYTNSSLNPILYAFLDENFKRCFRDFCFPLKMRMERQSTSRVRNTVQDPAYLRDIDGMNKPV

With `Cc1ccc2nc(N3CCC(NC4CCOC4)CC3)c(-c3ccc(C)nn3)cc2c1` (centres unmarked) [compound 458] as the molecule, how does the IC50 read?
The IC50 was 440 nM.

How did the IC50 turn out when `CO/N=C/c1cc2cc(C)ccc2nc1N1CCC(NC2CCCCC2)CC1` [compound 459] was run?
The IC50 was 15 nM.

`CCO/N=C/c1cc2cc(C)ccc2nc1N1CCC(NC2CCCCC2)CC1` [compound 460] was tested. Which IC50 did it give?
Its IC50 is 141 nM.

For `COC1CN(c2nc3ccccc3cc2-c2cccnn2)CCC1NC1CCCCC1` (centres unmarked) [compound 463], which IC50 is on record?
Its IC50 is 54 nM.

`c1cnnc(-c2cc3ccccc3nc2N2CCC(NC3CCCCC3)CC2)c1` [compound 464] was tested. Which IC50 did it give?
Its IC50 is 87 nM.

`Cc1nc(-c2cc3cc(F)ccc3nc2N2CCC(NC3CCCCC3)CC2)no1` [compound 489] was tested. Which IC50 did it give?
Its IC50 is 616 nM.

`CCC(CC)NC1CCN(c2nc3ccc(F)cc3cc2-c2noc(C)n2)CC1` [compound 490] was tested. Which IC50 did it give?
Its IC50 is 248 nM.

How did the IC50 turn out when `Cc1ccc2nc(N3CCC(N[C@H](C)C(C)C)CC3)c(-c3noc(C)n3)cc2c1` [compound 524] was run?
The IC50 was 57 nM.
